Earlier results in patent US20220370506A1, “AUGMENTATION OF FIBROBLAST MEDIATED REGENERATION OF INTRAVERTEBRAL DISCS” (FIGENE, LLC, priority 2019, published 2022).

System: patients with chronic lumbosacral radiculopathy or discogenic low back pain
[1] = authors' conclusion, single low dose intradiscal

etanercept
pain scores between or within groups (1-month follow-up, 0.1, 0.25, 0.5, 0.75, 1.0, or 1.5 mg intradiscally in each pain-generating disc, any dose range or subgroup): no differences | disability scores between or within groups (1-month follow-up, 0.1-1.5 mg intradiscally, any dose range or subgroup): no differences | effectiveness as treatment for chronic radicular or discogenic low back pain [1]: does not seem to be an effective treatment | serious side effects [1]: no serious side effects were observed | complications (intradiscal 0.1-1.5 mg, 36 patients): No complications were reported | preprocedure versus postprocedure leukocyte counts (intradiscal 0.1-1.5 mg, 1-month follow-up): no differences were noted
